The values that follow come from the NIST ThermoML archive (doi:10.1016/j.jct.2015.08.027).

By mass density is commonly meant mass per unit of volume. As a reminder, the refractive index is the speed of light in vacuum divided by its phase velocity in the sample.

Each structure is given as a SMILES string. Numbers after ± are expanded uncertainties.

For series [1] the following is noted: 101.33 kPa, Liquid, Vibrating tube method.
Series [2] is described as follows: refractive index (Na D-line) (dimensionless). The conditions noted are these: 101.33 kPa, Liquid, Standard Abbe refractometry.
Series [3] in a line: refractive index (Na D-line) (dimensionless); wn = mass fraction of the nth substance listed. The conditions noted are these: 81.5 kPa, Liquid, Standard Abbe refractometry.

On to `CCCCCCn1cc[n+](C)c1.F[P-](F)(F)(F)(F)F` [1-hexyl-3-methylimidazolium hexafluorophosphate], for which the mass density in series [1] (293.2 K) is 1294.91 ± 2.6 kg/m3; in series [1] (298.2 K) it was 1290.88 ± 2.6 kg/m3; in series [1] (303.2 K), 1286.85 ± 2.6 kg/m3. Further, the figures for the refractive index in series [2] (293.2 K), in series [2] (298.2 K) and in series [2] (303.2 K) were 1.4176 ± 0.00053, 1.4164 ± 0.00053 and 1.41515 ± 0.00053, respectively.
With `CCCCCCn1cc[n+](C)c1.F[P-](F)(F)(F)(F)F` [1-hexyl-3-methylimidazolium hexafluorophosphate] + O, the refractive index in series [3] (293.2 K, w2 = 0.0142) is 1.4164 ± 0.001; in series [3] (293.2 K, w2 = 0.993), 1.3334 ± 0.00077; in series [3] (298.2 K, w2 = 0.0161), 1.41525 ± 0.00099; in series [3] (298.2 K, w2 = 0.9924), 1.3332 ± 0.0008; in series [3] (303.2 K, w2 = 0.0164) it was 1.4135 ± 0.00098; in series [3] (303.2 K, w2 = 0.9914), 1.33345 ± 0.00086.
For the molecule `CC(C)=O` [acetone], the values for the mass density in series [1] (293.2 K), in series [1] (298.2 K) and in series [1] (303.2 K) were 790.66 ± 1.6 kg/m3, 784.4 ± 1.6 kg/m3 and 778.7 ± 1.6 kg/m3, respectively. The refractive index in series [2] (293.2 K) worked out at 1.3588 ± 0.00051; in series [2] (298.2 K), 1.35575 ± 0.00051; in series [2] (303.2 K) it was 1.35265 ± 0.00051.
On to `O` [water], for which the refractive index in series [2] (293.2 K) was found to be 1.33305 ± 0.00049; in series [2] (298.2 K) it was 1.3325 ± 0.00049; in series [2] (303.2 K), 1.33195 ± 0.00049.
